Assay results from ChEMBL document CHEMBL5055679, “Discovery of a Novel Androgen Receptor Antagonist Manifesting Evidence to Disrupt the Dimerization of the Ligand-Binding Domain via Attenuating the Hydrogen-Bonding Network Between the Two Monomers” (J Med Chem, 2021).
Calls of active or inactive are those of the source. No cut-off for these calls is given here.

What was measured:
MCF7 = assay: Cytotoxicity against human MCF7 cells assessed as reduction in cell viability at low concentration incubated for 72 hrs by MTT assay; type: functional, cell-based
[1] = target: T1, Mineralocorticoid receptor (Homo sapiens) (UniProt P08235); assay: Antagonist activity at mineralocorticoid receptor in human PC-3 cells assessed as reduction in aldosterone-induced luciferase activity at 10 uM by dual-Glo luciferase assay; type: cell-based
T1 sequence (whole entry): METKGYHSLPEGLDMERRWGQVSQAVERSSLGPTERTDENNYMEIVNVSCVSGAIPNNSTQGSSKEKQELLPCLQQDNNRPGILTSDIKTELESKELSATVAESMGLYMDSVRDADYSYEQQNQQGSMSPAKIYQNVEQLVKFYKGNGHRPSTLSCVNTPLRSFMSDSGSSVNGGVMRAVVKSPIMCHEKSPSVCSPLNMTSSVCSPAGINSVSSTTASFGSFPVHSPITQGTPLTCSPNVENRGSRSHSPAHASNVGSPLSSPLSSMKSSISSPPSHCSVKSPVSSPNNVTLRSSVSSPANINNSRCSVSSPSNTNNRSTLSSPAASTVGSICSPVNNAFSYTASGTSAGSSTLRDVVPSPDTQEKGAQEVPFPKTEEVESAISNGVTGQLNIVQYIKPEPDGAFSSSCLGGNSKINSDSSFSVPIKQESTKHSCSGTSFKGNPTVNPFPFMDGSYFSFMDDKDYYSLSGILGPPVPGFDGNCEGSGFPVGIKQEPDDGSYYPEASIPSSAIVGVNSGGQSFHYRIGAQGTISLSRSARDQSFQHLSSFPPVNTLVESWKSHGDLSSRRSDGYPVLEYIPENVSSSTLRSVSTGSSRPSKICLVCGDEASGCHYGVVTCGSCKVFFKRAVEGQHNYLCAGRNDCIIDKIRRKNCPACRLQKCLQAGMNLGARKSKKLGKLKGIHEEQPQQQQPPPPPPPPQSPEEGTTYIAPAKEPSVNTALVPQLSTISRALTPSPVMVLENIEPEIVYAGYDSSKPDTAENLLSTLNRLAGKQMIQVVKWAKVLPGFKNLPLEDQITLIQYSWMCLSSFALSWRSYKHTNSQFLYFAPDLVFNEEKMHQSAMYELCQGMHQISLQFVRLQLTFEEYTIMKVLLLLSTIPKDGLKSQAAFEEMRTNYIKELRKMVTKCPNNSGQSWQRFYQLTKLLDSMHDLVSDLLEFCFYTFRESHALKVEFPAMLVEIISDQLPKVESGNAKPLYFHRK

Androgen receptor = target: T2, Androgen receptor (Homo sapiens, UniProt P10275); assay: Inhibition of AR transcriptional activity in human LNCaP cells harboring ARR2PB-eGFP incubated for 72 hrs by fluorescence assay; type: cell-based
T2 sequence (P10275 whole entry): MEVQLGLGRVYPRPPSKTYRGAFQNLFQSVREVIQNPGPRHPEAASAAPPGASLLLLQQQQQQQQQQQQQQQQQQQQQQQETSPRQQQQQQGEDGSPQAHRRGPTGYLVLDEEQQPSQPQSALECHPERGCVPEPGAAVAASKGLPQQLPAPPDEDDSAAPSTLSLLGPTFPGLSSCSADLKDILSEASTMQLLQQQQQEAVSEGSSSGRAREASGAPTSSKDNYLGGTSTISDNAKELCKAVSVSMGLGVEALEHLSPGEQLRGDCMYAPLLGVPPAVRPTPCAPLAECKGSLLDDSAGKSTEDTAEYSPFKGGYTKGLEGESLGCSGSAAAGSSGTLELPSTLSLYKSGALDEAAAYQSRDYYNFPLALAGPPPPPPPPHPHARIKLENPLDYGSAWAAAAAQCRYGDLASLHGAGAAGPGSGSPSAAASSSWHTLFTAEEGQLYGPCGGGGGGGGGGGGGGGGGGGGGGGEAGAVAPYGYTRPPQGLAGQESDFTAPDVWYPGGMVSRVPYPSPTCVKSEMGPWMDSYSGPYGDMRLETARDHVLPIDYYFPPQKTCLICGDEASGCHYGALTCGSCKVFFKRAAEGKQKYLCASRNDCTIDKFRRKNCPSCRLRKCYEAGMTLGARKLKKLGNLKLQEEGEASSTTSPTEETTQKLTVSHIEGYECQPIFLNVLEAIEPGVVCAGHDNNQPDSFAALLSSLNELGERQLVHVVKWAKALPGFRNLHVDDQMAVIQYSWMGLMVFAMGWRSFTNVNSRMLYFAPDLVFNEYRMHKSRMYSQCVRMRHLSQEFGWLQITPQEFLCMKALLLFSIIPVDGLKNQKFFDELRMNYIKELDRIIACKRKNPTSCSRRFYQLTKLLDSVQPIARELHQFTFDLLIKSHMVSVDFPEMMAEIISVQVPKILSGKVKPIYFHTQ

**Q.** How did the Activity (MCF7) turn out when `O=c1cc(C(F)(F)F)c2ccc(OCc3ccc(Br)cc3)cc2o1` was run?
**A.** inactive

**Q.** And the Activity [1]?
**A.** inactive

**Q.** What about the IC50 (Androgen receptor) of the same compound?
**A.** 170 nM
